Data: patent publication US6653340B1, “Compounds useful in the complement, coagulat and kallikrein pathways and method for their preparation” (BioCryst Pharmaceuticals, Inc., priority 1997, dated 2003)

Experiments:
Type in all cases: biochemical
C1s = target: T1, C1s (Homo sapiens, UniProt P09871); experiment: C1s esterolytic inhibition assay (Z-Lys-SBzl substrate); conditions: Z-Lys-SBzl 1.29 mM, C1s 3 to 13 nM; read-out: Cls (Serine Protease Inhibitory Data, IC50)
T1 sequence (P09871 16-688): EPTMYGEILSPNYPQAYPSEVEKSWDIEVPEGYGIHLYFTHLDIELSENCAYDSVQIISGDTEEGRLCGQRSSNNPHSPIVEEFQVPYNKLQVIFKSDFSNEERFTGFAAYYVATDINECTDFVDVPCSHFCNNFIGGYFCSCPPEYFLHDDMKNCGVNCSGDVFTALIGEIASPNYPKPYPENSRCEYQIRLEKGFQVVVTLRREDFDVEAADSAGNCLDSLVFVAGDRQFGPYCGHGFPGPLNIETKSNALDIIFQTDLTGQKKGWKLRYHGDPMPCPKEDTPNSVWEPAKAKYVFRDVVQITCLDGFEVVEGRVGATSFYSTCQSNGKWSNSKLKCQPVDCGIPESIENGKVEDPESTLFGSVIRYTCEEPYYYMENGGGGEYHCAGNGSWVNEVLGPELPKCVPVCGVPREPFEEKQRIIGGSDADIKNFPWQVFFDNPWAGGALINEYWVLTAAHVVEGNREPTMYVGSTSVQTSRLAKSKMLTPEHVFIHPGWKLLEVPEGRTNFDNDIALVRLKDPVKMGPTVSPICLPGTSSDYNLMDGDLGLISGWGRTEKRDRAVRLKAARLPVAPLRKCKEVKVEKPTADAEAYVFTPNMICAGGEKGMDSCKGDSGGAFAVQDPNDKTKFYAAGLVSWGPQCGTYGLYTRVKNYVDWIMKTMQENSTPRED
Description: (§1) The compounds to be tested were dissolved in a stock solution of DMSO at 10.0 or 100 mM. A portion of this stock solution was added to assay buffer in a final volume of 100 μL containing the enzyme of interest. Controls included buffer alone and enzyme solutions to which DMSO was added. Substrate was added to the reaction wells immediately or after incubation at room temperature. The reaction rates were measured spectrophotometrically by the generation of product at 405 nm for 200 sec. Background absorbance at 690 nm was measured and subtracted from the absorbance at 405 nm for each well.
(§2) The reaction rate for enzyme alone was compared to the rate of enzyme in the presence of inhibitor and the percent inhibition was calculated as shown below:
(§3) Percent Inhibition=[Rate without inhibitor−Rate with inhibitor)/(Rate without inhibitor)]×100
(§4) Compounds in the examples were tested a minimum of three times.
C1s esterolytic activity was assayed using a modification of the technique originally described by Kam using Z-Lys-SBzl, 1.29 mM as substrate and C1s at 3 to 13 nM.

Thrombin = Thrombin (Homo sapiens, UniProt P00734); experiment: Thrombin inhibition assay (N-Benzoyl-Phe-Val-Arg-p-nitroanilide substrate); conditions: thrombin 12.5 U/ml, pH 7.5; read-out: Thrombin (Serine Protease Inhibitory Data, IC50)
Description: as §1, §2, §3, §4
(§5) Thrombin was assayed at 12.5 U/ml using 0.37 mM N-Benzoyl-Phe-Val-Arg-p-nitroanilide (Svendsen, L.; Blomback B.; Blomback, M.; Olsson, P. I. Substrate for determination of trypsin, thrombin and thrombin-like enzymes. Folia Haematol. 1972, 98, 446-454.) as the substrate in 100 mM HEPES, 10 mM CaCl2, 10% DMSO, pH 7.5. Factor Xa, 0.5 U/mL, was assayed in 50 mM HEPES, 150 mM NaCl, 10 mM CaCl2, pH 8.0 using Chromozyme X, 0.17 mM, as the substrate. Plasmin (0.004 units/mL), factor XIIa ([…]) and kallikrein (0.02 units/mL were assayed using modifications of the techniques originally described by McRae, et al. (Biochemistry. 1981, 20, 7196-7206). The assays were run in 200 mM triethanolamine, pH 7.8 and 100 mM Tris-HCl, 100 mM EDTA, […] using Z-Lys-SBzl, 0.13 mM and […], 0.16 mM, as substrates, respectively.

Factor Xa = Factor Xa (Homo sapiens, UniProt P00742); experiment: Factor Xa inhibition assay (Chromozyme X substrate); conditions: Factor Xa 0.5 U/mL, pH 8.0; read-out: Xa (Serine Protease Inhibitory Data, IC50)
Description: as §1, §2, §3, §4, §5

kallikrein = kallikrein (Homo sapiens, UniProt P03952); experiment: Kallikrein inhibition assay (thioester substrate); conditions: kallikrein 0.02 units/mL; read-out: Kallikrein (Serine Protease Inhibitory Data, IC50)
Description: as §1, §2, §3, §4, §5

factor XIIa = target: T2, factor XIIa (Homo sapiens, UniProt P00748); experiment: Factor XIIa inhibition assay (thioester substrate); conditions: read-out: XIIa (Serine Protease Inhibitory Data, IC50)
T2 sequence (P00748 373-615 limits assumed): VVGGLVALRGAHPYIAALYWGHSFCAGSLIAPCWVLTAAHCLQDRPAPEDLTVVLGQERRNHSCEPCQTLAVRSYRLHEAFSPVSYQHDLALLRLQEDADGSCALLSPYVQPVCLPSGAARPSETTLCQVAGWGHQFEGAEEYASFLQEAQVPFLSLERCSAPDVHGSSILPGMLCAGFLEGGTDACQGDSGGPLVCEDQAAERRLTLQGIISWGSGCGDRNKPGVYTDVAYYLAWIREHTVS
Description: as §1, §2, §3, §4, §5

Plasmin = Plasmin (Homo sapiens, UniProt P00747); experiment: Plasmin inhibition assay (thioester substrate); conditions: plasmin 0.004 units/mL; read-out: Plasmin (Serine Protease Inhibitory Data, IC50)
Description: as §1, §2, §3, §4, §5

Factor D = Factor D (Homo sapiens, UniProt P00746); experiment: Factor D esterolytic inhibition assay (Z-Lys-SBzl substrate); parameters: Factor D was purified from the urine of a patient with Fanconi syndrome by ion exchange chromatography; from tissue; host or cells: urine of a patient with Fanconi syndrome; conditions: Z-Lys-SBzl 1.29 mM, pH 7.5, 10% DMSO; read-out: Factor D (Serine Protease Inhibitory Data, IC50)
Source text: A modification of the procedure of Volanakis (Volankis, J. E.; Barnum, S. R.; Kilpatrick, J. M. Purification and properties of human factor D. Methods in Enzymol. 1993, 223, 82-97) for purification of Factor D was utilized as described by Yamauchi (Yamauchi, Y.; Stevens, J. W.; Macon, K. J.; Volanakis, J. E. Recombinant and native zymogen forms of human complement factor D. J. Immunol. 1994, 152, 3645-3653. Briefly, Factor D was purified from the urine of a patient with Fanconi syndrome by ion exchange chromatography using BioRex 70 and two rounds of ion-exchange chromatography in a Pharmacia FPLC system using a HR5/5 Mono S column.
as §1, §2, §3, §4
An established esterolytic assay for the measurement of Factor D activity and inhibition of Factor D activity was used (Kam, C. M.; McRae, B. J.; Harper, J. W.; Niemann, M. A.; Volanakis, J. E.; Powers, J. C. Human complement proteins D, C2, and B Active site mapping with peptide thioester substrates. J Biol. Chem. 1987, 262, 3444-3451). […] Hydrolysis of this compound by Factor D liberated a free sulfhydryl group which is then reacted with 5,5′-dithiobis(2nitrobenzoic acid) producing an intense yellow color (Habeeb, A. F. S. A. Reaction of protein sulfhydryl groups with Ellman's Reagent. Methods in Enzymol. 1976, 25, 457-464.). The assays were performed in 96 well microtiter plates and rates of hydrolysis were monitored at 405 nm in a Anthos Labtec HT2 plate reader. Hydrolysis rates were reported as change in mOD/min. The assay was conducted in 100 mM HEPES, 500 mM NaCl, pH 7.5 containing 10% DMSO in a final volume of 200 μL per well.

Chain of Factor Xa (P00742 235-488 limits assumed): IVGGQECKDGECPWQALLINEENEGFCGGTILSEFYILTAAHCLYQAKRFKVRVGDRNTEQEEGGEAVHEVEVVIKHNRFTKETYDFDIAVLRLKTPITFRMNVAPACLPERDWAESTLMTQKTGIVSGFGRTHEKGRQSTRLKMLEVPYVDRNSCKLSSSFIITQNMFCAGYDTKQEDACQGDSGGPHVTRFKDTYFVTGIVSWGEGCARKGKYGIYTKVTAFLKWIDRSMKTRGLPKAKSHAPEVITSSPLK
Chain of Factor Xa (P00742 41-179 partner limits assumed): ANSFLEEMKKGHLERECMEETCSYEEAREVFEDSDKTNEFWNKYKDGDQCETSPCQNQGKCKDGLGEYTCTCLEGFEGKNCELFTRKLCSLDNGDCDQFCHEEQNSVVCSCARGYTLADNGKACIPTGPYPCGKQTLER
Chain of Plasmin (P00747 581-810 limits assumed, species assumed): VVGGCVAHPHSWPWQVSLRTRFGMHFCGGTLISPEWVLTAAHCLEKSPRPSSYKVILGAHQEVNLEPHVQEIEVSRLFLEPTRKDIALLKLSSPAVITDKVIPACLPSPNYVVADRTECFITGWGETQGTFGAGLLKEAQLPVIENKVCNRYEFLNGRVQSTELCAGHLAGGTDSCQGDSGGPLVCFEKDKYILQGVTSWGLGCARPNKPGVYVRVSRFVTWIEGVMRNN
Chain of Plasmin (P00747 97-580 partner limits assumed, species assumed): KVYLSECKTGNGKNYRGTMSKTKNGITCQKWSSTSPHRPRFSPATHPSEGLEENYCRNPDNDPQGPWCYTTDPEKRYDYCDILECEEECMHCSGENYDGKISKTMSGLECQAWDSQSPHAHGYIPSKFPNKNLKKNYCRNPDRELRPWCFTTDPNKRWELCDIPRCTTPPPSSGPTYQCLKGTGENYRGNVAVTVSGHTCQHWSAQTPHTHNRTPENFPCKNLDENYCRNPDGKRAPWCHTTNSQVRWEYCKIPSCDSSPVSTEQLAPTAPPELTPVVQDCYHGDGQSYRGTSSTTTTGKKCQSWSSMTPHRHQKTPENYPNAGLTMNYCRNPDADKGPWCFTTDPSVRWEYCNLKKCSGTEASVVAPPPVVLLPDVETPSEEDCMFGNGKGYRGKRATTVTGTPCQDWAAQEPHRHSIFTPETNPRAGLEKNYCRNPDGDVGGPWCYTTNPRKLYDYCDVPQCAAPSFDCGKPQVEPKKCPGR
Chain of kallikrein (P03952 whole entry): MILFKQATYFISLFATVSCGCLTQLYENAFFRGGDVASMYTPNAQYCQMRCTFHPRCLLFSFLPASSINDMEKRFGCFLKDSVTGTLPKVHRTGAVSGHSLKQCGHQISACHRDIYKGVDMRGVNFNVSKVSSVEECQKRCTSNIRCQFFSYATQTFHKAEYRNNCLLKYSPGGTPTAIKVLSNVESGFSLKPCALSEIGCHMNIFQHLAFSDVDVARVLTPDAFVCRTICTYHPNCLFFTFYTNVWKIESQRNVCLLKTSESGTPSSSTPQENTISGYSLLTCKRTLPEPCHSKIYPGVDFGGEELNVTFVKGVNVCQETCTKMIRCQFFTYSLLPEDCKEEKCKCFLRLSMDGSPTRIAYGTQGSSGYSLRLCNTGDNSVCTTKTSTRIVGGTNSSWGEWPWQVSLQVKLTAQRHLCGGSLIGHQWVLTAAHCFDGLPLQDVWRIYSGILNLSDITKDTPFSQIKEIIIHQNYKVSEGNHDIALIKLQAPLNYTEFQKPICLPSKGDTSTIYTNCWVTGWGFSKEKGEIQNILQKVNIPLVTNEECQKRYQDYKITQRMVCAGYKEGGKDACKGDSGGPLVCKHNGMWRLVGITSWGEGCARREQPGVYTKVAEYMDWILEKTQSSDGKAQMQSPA
Chain of Factor D (P00746 26-253): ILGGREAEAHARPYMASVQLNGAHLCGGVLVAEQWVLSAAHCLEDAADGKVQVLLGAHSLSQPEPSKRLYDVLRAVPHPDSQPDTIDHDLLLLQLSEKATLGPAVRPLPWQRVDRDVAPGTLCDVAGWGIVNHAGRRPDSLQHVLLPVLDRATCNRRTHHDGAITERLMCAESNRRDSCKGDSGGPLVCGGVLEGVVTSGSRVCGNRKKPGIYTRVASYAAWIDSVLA

SMILES | IC50 (C1s) [nM] | IC50 (Thrombin) [nM] | IC50 (Factor Xa) [nM] | IC50 (kallikrein) [nM] | IC50 (factor XIIa) [nM] | IC50 (Plasmin) [nM] | IC50 (Factor D) [nM]
N=C(N)c1cc2ccc(OC(=O)c3ccsc3)cc2s1 [Example 11] | 4.3 | 39 | 6 | 1.6 | 12.7 | 9 | 175
N=C(N)c1nc2ccc(OC(=O)c3ccccc3)cc2s1 [Example 12] | 5.3 | 44 | 52 | 3.8 | 13 | 37 | 564
N=C(N)c1nc2ccc(OC(=O)c3ccco3)cc2s1 [Example 13] | 3 | 25 | 1 | 4 | 9 | 2 | 421
N=C(N)c1nc2ccc(OC(=O)c3cccs3)cc2s1 [Example 14] | 2 | 18 | 12 | 2 | 5 | 6 | 250
N=C(N)c1nc2ccc(OC(=O)c3ccoc3)cc2s1 [Example 15] | 2 | 15 | 22 | 5 | 6 | 15 | 286
N=C(N)c1nc2ccc(OC(=O)c3ccsc3)cc2s1 [Example 16] | 2.5 | 42 | 31 | 2.6 | 10 | 21 | 205
N=C(N)c1nc2ccc(OC(=O)c3ccc(Cl)s3)cc2s1 [Example 17] | 2 | 48 | 2 | – | – | 3 | 260
N=C(N)C1=Cc2ccc(OC(=O)c3ccco3)cc2OC1 [Example 18, 3-amidino-7-(2H-1-benzopyran) 2-furancarboxylate methanesulfonate] | 2.9 | 51 | 3.9 | 3.6 | 6.1 | 1.5 | 347
N=C(N)C1COc2cc(OC(=O)c3ccco3)ccc2C1 (centres unmarked) [Example 19] | 750 | – | – | 661 | – | – | 50000
CC/C=C/C(=O)Oc1ccc2cc(C(=N)N)sc2c1 [Example 20] | 6 | 47 | 5 | 12 | 27 | 6 | 190
N=C(N)c1ccc2cc(OC(=O)c3ccccc3)ccc2c1 [reference, reference compound] | 40 | 3110 | 7170 | – | – | – | 4000
